# Experimental data reported in ChEMBL document CHEMBL1139269, “Stereoselective inhibition of serotonin re-uptake and phosphodiesterase by dual inhibitors as potential agents for depression” (Bioorg Med Chem, 2009).
# Active and inactive are the calls of the source. The calls are words filed in the database; no cut-off is given here.
# Experiments:
# [1] = target: T1, Sodium-dependent noradrenaline transporter (Homo sapiens, UniProt P23975); assay: Displacement of [125I]RTI55 from human recombinant NET expressed in HEK293 cells; assay type: cell-based
# T1 sequence (P23975 whole entry): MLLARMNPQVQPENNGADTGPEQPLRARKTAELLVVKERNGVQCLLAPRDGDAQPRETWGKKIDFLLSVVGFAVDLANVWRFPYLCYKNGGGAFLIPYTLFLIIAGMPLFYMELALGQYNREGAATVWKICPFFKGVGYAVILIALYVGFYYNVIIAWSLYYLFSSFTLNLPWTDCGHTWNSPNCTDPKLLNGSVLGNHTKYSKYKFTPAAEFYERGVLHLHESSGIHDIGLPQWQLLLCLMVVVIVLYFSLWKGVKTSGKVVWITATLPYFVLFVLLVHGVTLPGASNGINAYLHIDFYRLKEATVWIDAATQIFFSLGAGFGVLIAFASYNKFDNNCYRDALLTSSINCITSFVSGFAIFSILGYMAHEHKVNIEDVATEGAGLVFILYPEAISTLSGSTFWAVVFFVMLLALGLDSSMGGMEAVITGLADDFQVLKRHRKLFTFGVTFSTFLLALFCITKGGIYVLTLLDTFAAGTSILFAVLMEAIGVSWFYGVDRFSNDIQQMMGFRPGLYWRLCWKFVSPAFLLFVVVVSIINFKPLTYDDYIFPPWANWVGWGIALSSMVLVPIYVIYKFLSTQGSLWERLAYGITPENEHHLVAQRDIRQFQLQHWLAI
# [2] = target: T1, Sodium-dependent noradrenaline transporter; assay: Inhibition of [3H]NE from human recombinant NET expressed in HEK293 cells; assay type: cell-based
# [3] = target: T2, Sodium-dependent dopamine transporter (Homo sapiens, UniProt Q01959); assay: Displacement of [125I]RTI55 from human recombinant DAT expressed in HEK293 cells; assay type: cell-based
# T2 sequence (Q01959 whole entry): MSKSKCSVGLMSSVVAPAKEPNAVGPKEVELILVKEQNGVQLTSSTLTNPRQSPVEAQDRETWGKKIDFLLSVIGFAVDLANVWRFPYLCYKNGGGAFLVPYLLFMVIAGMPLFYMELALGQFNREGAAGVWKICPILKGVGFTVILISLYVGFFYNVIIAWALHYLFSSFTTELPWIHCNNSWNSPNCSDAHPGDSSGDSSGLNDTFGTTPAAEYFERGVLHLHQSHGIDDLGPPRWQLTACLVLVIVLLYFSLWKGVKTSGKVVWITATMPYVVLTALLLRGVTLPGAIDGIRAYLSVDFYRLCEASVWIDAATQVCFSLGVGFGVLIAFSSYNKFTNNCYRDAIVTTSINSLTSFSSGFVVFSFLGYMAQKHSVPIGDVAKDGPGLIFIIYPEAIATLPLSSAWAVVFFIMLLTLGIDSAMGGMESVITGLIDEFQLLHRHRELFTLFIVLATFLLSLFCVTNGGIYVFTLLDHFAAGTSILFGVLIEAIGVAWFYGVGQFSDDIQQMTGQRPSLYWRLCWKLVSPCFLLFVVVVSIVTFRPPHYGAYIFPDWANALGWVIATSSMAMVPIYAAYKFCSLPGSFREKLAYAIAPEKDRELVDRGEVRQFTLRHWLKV
# [4] = target: T3, 3',5'-cyclic-AMP phosphodiesterase 4D (Homo sapiens, UniProt Q08499); assay: Inhibition of PDE4D2 at 100 uM by rapid fluorescence based assay
# T3 sequence (Q08499 whole entry): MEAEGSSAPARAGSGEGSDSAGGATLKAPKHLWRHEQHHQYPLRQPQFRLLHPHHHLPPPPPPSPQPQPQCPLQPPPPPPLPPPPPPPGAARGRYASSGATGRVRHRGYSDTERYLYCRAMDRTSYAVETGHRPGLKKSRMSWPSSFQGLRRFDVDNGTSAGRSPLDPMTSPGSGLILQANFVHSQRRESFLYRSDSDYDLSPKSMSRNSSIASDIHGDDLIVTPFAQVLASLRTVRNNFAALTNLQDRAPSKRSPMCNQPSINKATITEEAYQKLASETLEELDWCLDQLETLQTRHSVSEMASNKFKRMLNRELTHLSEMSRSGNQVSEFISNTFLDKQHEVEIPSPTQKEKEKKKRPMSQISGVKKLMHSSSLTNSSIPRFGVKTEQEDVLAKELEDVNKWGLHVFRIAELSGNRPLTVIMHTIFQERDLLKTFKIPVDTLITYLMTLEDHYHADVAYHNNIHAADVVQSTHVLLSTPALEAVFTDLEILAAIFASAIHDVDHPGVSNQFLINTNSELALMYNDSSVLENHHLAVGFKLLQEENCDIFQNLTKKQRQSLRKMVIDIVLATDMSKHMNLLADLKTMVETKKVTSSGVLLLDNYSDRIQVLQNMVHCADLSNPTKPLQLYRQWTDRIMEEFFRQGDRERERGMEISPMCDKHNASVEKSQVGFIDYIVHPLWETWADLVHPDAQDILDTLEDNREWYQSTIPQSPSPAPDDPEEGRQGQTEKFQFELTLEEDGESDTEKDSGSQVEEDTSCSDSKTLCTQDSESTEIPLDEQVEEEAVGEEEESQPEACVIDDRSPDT
# [5] = target: T2, Sodium-dependent dopamine transporter; assay: Inhibition of [3H]DA from human recombinant DAT expressed in HEK293 cells; assay type: cell-based
# [6] = target: T3, 3',5'-cyclic-AMP phosphodiesterase 4D; assay: Inhibition of PDE4D2 by rapid fluorescence based assay
# [7] = target: T4, Sodium-dependent serotonin transporter (Homo sapiens, UniProt P31645); assay: biochemical; assay type: cell-based, HEK293
# T4 sequence (P31645 whole entry): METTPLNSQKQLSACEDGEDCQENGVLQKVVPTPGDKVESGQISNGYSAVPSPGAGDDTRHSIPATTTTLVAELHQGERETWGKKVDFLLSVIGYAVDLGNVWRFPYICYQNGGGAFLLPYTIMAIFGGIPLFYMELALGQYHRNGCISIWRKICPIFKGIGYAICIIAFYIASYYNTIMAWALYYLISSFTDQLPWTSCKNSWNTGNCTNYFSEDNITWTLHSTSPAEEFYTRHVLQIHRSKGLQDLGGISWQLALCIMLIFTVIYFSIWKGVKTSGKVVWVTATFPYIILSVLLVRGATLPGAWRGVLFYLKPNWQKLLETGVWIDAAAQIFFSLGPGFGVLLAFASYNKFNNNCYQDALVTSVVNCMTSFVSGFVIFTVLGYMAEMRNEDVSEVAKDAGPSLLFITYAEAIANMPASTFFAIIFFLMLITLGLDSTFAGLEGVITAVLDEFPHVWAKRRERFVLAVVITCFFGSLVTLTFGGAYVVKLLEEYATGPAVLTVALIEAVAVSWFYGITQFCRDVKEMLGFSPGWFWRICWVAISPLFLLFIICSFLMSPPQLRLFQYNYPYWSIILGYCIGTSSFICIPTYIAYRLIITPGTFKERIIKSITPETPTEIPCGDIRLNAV
# [8] = target: T4, Sodium-dependent serotonin transporter; assay: Inhibition of [3H]5HT from human recombinant SERT expressed in HEK293 cells; assay type: cell-based
Ki [1] [µM],IC50 [2] [µM],Ki [3] [µM],Activity [4],IC50 [5] [µM],IC50 [6] [µM],Ki [7] [µM],IC50 [8] [µM],SMILES
6.57,6.81,4.49,,> 7,0.106,0.065,0.173,COc1ccc(C2=NN(CCCCCNCC[C@@H](Oc3ccc(C(F)(F)F)cc3)c3ccccc3)C(=O)C3CC=CCC23)cc1OC (stereo not given in full)
4.6,6.55,2.72,,5.98,0.253,0.3,0.042,COc1ccc(C2=NN(CCCCCNCC[C@H](Oc3ccc(C(F)(F)F)cc3)c3ccccc3)C(=O)C3CC=CCC23)cc1OC (stereo not given in full)

# The next lines start with the compound.
SMILES,Ki [1] [µM],IC50 [2] [µM],Ki [3] [µM],Activity [4],IC50 [5] [µM],IC50 [6] [µM],Ki [7] [µM],IC50 [8] [µM]
NCC[C@@H](Oc1ccc(C(F)(F)F)cc1)c1ccccc1,7.49,2,3.66,inactive,7.13,,,
COc1ccc(C2=NNC(=O)C3CC=CCC23)cc1OC (stereo not given),> 100,> 100,> 100,,> 100,0.213,> 100,> 100
COc1ccc(C2=NN(CCCCCBr)C(=O)C3CC=CCC23)cc1OC (stereo not given),,,> 100,,> 100,,> 100,> 100
NCC[C@H](Oc1ccc(C(F)(F)F)cc1)c1ccccc1 [SEPROXETINE],6.19,2.81,4.54,,6.49,≥ 100,,
